From ChEMBL document CHEMBL1201862, “PubChem BioAssay data set” (2004)
Active and inactive are the calls of the source.

Columns and labels:
Integrin alpha-L = Integrin alpha-L (Mus musculus, UniProt P24063); experiment: modulators of CD8 T cell-vesicle binding, dose response, powder samples, mouse 2C CD8+ cells (AID 504565); assay type: functional
Importin subunit alpha-1 = Importin subunit alpha-1 (Homo sapiens, UniProt P52292); experiment: compounds lowering YIC probe YFP/CFP ratio – biochemical, dry powder samples, FRET, counter-screen for RanGTP-importin-beta inhibitor project, dose response (AID 493094); assay type: functional
[1] = target: DNA dC->dU-editing enzyme APOBEC-3G (Homo sapiens, UniProt Q9HC16); experiment: Dose Response confirmation of small molecule APOBEC3G DNA Deaminase Inhibitors via a fluorescence-based single-stranded DNA deaminase assay. [Related pubchem assays (depositor defined):AID493012, AID493028]; assay type: functional
Sequence of DNA dC->dU-editing enzyme APOBEC-3G (Q9HC16 whole entry): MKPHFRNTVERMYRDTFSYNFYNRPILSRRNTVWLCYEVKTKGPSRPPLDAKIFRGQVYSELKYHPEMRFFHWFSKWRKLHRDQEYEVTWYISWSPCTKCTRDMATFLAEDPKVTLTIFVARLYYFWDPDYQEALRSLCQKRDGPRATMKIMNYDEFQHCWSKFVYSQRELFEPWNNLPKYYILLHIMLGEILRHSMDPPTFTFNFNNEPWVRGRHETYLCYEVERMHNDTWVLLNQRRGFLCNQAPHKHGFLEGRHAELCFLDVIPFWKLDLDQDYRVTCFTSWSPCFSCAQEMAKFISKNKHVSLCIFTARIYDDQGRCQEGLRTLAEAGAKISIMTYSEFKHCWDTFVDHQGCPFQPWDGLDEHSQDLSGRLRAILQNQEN

[2] = target: DNA dC->dU-editing enzyme APOBEC-3A (Homo sapiens, UniProt P31941); experiment: A3A deaminase inhibition for selectivity – biochemical, dose response (AID 504722); assay type: functional
Sequence of DNA dC->dU-editing enzyme APOBEC-3A (P31941 whole entry): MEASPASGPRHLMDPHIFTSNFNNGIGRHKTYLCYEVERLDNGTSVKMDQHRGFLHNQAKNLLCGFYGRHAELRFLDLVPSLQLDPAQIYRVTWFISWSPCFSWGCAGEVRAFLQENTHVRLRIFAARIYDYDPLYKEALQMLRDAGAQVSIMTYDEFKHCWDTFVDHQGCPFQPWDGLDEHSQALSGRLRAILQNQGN

[3] = alpha-synuclein stem-loop luciferase translation blockers – H4 neuroglioma cells, luminescence, confirmation (AID 1988); assay type: functional, cell-based
[4] = luciferase reporter signal reduction – luminescence, H4-C neuroglioblastoma cells, dose response (AID 2458); assay type: functional, cell-based;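 also: H4 neuroglioblastoma cells stably carrying a luciferase reporter gene fusion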
cells [5] = assay type: functional
Vero [6] = experiment: cells; assay type: functional, cell-based; settings: Chlorocebus sabaeus
[7] = target: Type-1 angiotensin II receptor (Homo sapiens, UniProt P30556); experiment: antagonism of angiotensin II type 1 receptor – cell-based, uHTS hits, selectivity assay for APJ receptor antagonist project, dose response (AID 463214); assay type: functional;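 also: antagonist potency against angiotensin II stimulated AT1 response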
[8] = target: T1, Kappa-type opioid receptor (Homo sapiens, UniProt P41145); assay type: functional
T1 sequence (P41145 whole entry): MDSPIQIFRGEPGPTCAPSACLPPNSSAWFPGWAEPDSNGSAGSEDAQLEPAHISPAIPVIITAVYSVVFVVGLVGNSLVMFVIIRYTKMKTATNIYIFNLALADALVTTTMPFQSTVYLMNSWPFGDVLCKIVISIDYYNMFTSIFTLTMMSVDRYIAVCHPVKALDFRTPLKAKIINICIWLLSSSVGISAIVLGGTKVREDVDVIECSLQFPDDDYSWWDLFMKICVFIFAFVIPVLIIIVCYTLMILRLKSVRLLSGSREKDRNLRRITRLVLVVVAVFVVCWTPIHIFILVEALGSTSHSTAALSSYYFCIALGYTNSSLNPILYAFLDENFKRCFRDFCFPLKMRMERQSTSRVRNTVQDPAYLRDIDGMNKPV

INS1 = experiment: INS-1E survival protection against cytokine death – cell-based, luminescence, retest, dose response (AID 449756); assay type: functional; settings: Rattus norvegicus;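 also: cell death triggered by IL-1 beta plus TNF-alpha plus IFN-gamma mixture; protective hits raise ATP signal compared with cytokine alone wells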
[9] = Vero E6 cell cytotoxicity, dose response, cytotoxicity control for non-replicating M. tuberculosis project, secondary assay (AID 492998); assay type: functional, VeroE6; settings: Vero C1008
[10] = target: T1, Kappa-type opioid receptor; assay type: functional; remark: listed apart in the source
cells [11] = assay type: functional, cell-based
[12] = HepG2 cell cytotoxicity, dose response, cytotoxicity control for non-replicating M. tuberculosis project (AID 489018); assay type: functional; settings: Mycobacterium tuberculosis
Beta-galactosidase [13] = target: T2, Beta-galactosidase (Escherichia coli, UniProt Q8VNN2); experiment: PubChem AID 485352; assay type: functional
T2 sequence (Q8VNN2 whole entry): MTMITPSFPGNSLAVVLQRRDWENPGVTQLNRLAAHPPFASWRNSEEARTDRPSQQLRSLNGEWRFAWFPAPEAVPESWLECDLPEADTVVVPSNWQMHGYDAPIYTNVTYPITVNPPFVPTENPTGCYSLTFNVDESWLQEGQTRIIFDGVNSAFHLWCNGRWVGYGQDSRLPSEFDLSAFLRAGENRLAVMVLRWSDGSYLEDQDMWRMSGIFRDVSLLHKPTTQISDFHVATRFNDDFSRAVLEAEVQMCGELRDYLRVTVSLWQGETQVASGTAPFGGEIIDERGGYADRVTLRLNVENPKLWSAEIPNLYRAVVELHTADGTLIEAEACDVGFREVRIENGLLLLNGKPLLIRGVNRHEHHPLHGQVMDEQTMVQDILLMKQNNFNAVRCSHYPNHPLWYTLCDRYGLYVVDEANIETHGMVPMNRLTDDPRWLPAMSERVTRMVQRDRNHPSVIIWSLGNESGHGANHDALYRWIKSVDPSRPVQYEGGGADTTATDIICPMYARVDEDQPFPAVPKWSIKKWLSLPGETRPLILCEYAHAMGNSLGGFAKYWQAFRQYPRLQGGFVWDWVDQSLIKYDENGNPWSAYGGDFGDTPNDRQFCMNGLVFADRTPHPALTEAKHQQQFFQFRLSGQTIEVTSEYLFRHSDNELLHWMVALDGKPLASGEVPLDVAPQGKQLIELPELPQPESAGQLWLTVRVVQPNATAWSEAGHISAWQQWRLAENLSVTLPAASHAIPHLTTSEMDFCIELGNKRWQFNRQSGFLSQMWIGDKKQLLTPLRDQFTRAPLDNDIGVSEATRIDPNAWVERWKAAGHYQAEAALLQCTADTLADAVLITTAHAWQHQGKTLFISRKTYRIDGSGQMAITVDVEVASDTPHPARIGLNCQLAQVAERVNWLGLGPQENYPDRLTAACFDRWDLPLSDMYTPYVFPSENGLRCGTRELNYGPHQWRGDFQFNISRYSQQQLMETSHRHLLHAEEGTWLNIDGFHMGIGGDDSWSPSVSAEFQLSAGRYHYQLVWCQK

Streptococcus = experiment: GAS UMAA2166 growth inhibition – luminescence, BacTiterGlo, counter-screen for streptokinase expression inhibitor project, dose response (AID 1915); assay type: functional, organism-based;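 also: potency for reduction of bacterial viability or growth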
Beta-galactosidase [14] = target: T2, Beta-galactosidase; experiment: Dose response counterscreen for EBI2 assay utilizing the enzyme, b-galactosidase.; assay type: functional
Vero [15] = experiment: cells; assay type: functional; settings: Chlorocebus sabaeus
Nonstructural protein 1 = Nonstructural protein 1 (Influenza A virus, UniProt Q194T2); assay type: functional, Influenza A virus (A/California/07/2009(H1N1))
Sequence of Nonstructural protein 1 (Q194T2 whole entry): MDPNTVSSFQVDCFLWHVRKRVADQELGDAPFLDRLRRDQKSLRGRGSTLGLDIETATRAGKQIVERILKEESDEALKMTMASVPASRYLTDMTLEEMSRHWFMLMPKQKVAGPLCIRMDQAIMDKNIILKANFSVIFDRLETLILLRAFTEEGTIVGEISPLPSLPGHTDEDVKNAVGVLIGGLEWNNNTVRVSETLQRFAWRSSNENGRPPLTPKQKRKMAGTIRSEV

[16] = tested on: Streptococcus sp. 'group A'; experiment: Streptococcus pyogenes SK(-)GAS viability under kanamycin – luminescence, BacTiterGlo, confirmation, counter-screen for streptokinase expression inhibitor project, dose response (AID 1900); assay type: functional, organism-based
[17] = THP-1 cell cytotoxicity, dose response, cytotoxicity control for non-replicating M. tuberculosis project (AID 489025); assay type: functional
Beta-galactosidase [18] = target: T2, Beta-galactosidase; assay type: functional
[19] = luciferase reporter signal suppression in cells – H4 neuroglioma cells, luminescence, dose response (AID 1990); assay type: functional, cell-based
[20] = alpha-synuclein stem-loop translation blockers – luminescence, H4 neuroglioblastoma cells, dose confirmation, confirmation (AID 2454); assay type: functional, cell-based;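 also: H4 neuroglioblastoma cells carrying an alpha-synuclein 5'UTR luciferase reporter; potency for inhibition of the luciferase signal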
[21] = target: T3, Sentrin-specific protease 8 (Homo sapiens, UniProt Q96LD8); assay type: functional;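 also: luminescence read-out of SENP8 inhibition, dose-response confirmation following an ultra-high-throughput screen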
T3 sequence (Q96LD8 whole entry): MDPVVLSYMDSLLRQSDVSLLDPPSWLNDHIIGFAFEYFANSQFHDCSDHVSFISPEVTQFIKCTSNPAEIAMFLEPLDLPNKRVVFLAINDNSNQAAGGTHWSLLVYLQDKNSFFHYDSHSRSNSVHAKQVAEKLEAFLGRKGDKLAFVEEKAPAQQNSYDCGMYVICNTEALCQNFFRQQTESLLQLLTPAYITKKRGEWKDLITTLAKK

[22] = target: T4, Sentrin-specific protease 7 (Homo sapiens, UniProt Q9BQF6); assay type: functional;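 also: Luminescence-based dose-response confirmation of ultra-high-throughput screening hits, measuring inhibition of SENP7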
T4 sequence (Q9BQF6 whole entry): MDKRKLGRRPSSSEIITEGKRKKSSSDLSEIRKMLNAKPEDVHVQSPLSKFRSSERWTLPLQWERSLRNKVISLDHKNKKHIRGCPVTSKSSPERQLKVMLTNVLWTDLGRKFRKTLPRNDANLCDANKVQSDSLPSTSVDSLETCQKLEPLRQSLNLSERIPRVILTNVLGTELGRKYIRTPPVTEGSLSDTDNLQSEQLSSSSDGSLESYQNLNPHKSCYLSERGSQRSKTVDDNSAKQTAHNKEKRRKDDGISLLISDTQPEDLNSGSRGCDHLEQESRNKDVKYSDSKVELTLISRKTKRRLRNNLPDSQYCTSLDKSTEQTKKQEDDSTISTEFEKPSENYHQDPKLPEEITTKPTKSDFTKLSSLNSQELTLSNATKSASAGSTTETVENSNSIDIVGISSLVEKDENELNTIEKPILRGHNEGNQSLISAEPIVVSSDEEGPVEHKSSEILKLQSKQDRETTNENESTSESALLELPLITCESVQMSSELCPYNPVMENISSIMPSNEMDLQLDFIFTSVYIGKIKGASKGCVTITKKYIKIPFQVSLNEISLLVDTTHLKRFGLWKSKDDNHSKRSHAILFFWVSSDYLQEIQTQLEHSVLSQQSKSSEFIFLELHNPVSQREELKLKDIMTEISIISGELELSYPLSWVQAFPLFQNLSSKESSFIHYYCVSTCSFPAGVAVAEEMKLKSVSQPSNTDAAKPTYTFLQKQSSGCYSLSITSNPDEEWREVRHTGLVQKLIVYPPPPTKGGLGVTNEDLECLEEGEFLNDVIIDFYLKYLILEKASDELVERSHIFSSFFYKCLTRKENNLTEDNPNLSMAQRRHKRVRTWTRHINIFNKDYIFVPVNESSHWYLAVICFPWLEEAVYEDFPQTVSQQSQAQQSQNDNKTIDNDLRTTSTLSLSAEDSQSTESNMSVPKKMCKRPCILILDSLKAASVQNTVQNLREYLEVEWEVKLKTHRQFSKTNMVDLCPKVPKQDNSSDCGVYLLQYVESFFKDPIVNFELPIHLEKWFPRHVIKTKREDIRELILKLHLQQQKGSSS

[23] = target: T5, Sentrin-specific protease 6 (Homo sapiens, UniProt Q9GZR1); assay type: functional;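 also: Luminescence-based dose-response confirmatory assay of SENP6 inhibition, following up an ultra-high-throughput screen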
T5 sequence (Q9GZR1 whole entry): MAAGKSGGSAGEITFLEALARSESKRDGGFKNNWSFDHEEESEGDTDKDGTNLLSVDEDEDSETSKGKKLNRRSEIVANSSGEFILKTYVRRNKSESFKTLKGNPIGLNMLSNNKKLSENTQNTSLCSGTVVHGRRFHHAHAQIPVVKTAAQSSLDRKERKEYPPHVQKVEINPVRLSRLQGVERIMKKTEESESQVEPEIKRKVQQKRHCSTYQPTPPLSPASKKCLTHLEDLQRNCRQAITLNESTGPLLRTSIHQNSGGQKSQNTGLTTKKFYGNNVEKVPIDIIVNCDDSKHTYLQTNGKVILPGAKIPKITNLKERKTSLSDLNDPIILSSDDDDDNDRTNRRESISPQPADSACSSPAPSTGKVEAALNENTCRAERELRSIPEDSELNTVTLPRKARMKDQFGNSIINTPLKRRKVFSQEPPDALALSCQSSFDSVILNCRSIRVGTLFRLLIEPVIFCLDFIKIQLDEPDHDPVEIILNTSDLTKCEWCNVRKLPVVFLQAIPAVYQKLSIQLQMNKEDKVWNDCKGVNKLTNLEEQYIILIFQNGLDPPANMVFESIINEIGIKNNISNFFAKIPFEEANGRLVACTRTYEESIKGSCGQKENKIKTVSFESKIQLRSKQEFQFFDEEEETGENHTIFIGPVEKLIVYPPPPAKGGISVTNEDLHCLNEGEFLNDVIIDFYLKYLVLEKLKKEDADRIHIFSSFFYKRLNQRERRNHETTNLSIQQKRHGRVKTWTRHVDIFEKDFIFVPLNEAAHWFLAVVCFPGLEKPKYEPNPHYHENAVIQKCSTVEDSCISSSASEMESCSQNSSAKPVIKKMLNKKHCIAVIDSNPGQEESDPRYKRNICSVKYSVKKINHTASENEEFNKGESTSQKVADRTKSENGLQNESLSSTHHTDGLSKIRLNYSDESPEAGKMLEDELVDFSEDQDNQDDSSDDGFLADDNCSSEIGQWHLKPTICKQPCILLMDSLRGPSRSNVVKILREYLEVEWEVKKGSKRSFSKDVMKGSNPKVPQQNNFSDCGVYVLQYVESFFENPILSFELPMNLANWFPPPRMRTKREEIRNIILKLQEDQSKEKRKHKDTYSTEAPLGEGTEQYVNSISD

[24] = target: Potassium voltage-gated channel subfamily KQT member 2 (Rattus norvegicus, UniProt O88943); experiment: potentiation of rat KCNQ2 current – cell-based, retigabine-insensitive compounds, dose response (AID 2654); assay type: functional
Caspase-3 = target: T6, Caspase-3 (Homo sapiens, UniProt P42574); assay type: functional;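 also: Dose-response selectivity test against caspase-3 for candidate inhibitors of sentrin-specific proteases (SENPs)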
T6 sequence (P42574 whole entry): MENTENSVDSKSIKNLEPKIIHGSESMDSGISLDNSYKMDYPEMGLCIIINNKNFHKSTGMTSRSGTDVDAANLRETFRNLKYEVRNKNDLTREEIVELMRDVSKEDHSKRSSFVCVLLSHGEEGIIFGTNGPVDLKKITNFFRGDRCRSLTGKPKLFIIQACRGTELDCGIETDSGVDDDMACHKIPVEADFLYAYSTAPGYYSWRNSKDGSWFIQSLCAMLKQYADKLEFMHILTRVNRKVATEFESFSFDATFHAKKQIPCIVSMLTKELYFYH

[25] = viability of HCT116 lacking mutant beta-catenin – cell-based, human colon tumor, dose response (AID 1045); assay type: functional;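 also: HCT116 colon tumor cells with beta catenin knocked out; cells exposed to compound for 60 hours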
[26] = target: 1-acylglycerol-3-phosphate O-acyltransferase ABHD5/Perilipin-5 (Homo sapiens, UniProt Q00G26+Q8WTS1); experiment: Luminescence-based biochemical high throughput dose response assay for inhibitors of the interaction of the lipase co-activator protein, abhydrolase domain containing 5 (ABHD5) with perilipin-5 (MLDP; PLIN5) (2K validation set). [Related pubchem assays (depositor defined):AID493035, AID493241]
Sequence of 1-acylglycerol-3-phosphate O-acyltransferase ABHD5/Perilipin-5 (Q00G26 whole entry, the tested form may be a part): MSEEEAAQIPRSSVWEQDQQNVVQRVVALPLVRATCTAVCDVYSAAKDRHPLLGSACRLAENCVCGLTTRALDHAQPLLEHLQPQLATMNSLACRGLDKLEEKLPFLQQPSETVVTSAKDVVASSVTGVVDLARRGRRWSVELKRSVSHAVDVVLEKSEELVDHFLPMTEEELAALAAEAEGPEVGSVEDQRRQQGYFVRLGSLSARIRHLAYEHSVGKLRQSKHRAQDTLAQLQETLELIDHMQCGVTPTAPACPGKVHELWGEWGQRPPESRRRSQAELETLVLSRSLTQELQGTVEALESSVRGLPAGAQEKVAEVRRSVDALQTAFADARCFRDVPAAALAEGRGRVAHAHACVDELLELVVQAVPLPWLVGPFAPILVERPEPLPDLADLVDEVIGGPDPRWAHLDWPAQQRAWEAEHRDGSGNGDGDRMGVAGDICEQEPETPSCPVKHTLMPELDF
Sequence of 1-acylglycerol-3-phosphate O-acyltransferase ABHD5/Perilipin-5 (Q8WTS1 whole entry, the tested form may be a part): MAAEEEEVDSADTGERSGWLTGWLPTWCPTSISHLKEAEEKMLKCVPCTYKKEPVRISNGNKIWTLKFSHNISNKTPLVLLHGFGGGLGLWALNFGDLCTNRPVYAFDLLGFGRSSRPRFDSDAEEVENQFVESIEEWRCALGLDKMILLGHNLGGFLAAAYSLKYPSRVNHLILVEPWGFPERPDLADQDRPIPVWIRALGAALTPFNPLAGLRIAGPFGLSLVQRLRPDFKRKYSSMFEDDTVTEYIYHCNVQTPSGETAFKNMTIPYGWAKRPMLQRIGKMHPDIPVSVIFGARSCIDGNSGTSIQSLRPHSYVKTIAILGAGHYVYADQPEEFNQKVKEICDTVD

Perilipin-1/ABHD5 = Perilipin-1/ABHD5 (Homo sapiens, UniProt O60240+Q8WTS1); experiment: Luminescence-based biochemical high throughput dose response assay for inhibitors of the interaction of the lipase co-activator protein, abhydrolase domain containing 5 (ABHD5) with perilipin-1 (PLIN1) (2K validation set). [Related pubchem assays (depositor defined):AID493027, AID493057]
Sequence of Perilipin-1/ABHD5 (Q8WTS1 whole entry, the tested form may be a part): as above
Sequence of Perilipin-1/ABHD5 (O60240 whole entry, the tested form may be a part): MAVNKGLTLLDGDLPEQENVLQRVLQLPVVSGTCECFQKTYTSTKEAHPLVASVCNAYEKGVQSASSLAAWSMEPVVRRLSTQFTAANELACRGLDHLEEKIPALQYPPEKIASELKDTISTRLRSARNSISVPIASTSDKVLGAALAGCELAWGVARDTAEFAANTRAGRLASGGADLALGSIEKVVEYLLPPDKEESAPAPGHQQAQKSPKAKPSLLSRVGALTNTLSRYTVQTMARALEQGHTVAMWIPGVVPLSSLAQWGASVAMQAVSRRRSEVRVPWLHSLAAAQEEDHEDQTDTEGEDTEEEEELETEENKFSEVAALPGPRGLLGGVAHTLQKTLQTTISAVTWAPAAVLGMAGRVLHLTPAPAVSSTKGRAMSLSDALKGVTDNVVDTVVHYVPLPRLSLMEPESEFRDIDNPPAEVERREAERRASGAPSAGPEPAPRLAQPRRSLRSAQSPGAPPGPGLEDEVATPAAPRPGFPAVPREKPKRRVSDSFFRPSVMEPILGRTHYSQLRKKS

[27] = viability of PTEN-deleted HCT116 cells – cell-based, HCT116 PTEN knockout, dose response (AID 1047); assay type: functional;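 also: HCT116 colon tumor cells with PTEN knocked out; cells exposed to compound for 60 hours before readout; potency for loss of cell viability measured by luminescence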
[28] = target: T7, Heat shock factor protein 1 (Mus musculus, UniProt P38532); experiment: enhancement of HSF1-driven luciferase signal – cell-based, NIH3T3, luminescence, dose retest, confirmation (AID 435004); assay type: functional;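 also: stress induced by proteasome inhibitor MG132 added 30 min after compound; luciferase reporter driven by HSF1 response element in NIH3T3 cells; actives raise luminescence as potentiators of the MG132 stress response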
T7 sequence (P38532 whole entry): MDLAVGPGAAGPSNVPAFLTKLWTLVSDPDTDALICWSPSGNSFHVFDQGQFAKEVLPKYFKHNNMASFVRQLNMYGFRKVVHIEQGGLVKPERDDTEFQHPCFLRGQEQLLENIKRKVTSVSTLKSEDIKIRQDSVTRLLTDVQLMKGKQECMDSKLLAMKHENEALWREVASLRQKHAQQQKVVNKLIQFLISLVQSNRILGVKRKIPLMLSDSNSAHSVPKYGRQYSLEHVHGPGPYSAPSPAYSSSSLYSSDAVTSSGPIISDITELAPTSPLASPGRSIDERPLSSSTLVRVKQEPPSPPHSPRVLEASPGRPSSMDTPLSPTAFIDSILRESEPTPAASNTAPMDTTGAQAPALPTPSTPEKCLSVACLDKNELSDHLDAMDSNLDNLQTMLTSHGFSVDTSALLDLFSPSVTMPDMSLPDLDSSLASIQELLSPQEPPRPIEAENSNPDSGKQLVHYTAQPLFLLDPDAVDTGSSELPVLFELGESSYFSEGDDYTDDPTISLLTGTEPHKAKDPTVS

Sequence of Integrin alpha-L (P24063 whole entry): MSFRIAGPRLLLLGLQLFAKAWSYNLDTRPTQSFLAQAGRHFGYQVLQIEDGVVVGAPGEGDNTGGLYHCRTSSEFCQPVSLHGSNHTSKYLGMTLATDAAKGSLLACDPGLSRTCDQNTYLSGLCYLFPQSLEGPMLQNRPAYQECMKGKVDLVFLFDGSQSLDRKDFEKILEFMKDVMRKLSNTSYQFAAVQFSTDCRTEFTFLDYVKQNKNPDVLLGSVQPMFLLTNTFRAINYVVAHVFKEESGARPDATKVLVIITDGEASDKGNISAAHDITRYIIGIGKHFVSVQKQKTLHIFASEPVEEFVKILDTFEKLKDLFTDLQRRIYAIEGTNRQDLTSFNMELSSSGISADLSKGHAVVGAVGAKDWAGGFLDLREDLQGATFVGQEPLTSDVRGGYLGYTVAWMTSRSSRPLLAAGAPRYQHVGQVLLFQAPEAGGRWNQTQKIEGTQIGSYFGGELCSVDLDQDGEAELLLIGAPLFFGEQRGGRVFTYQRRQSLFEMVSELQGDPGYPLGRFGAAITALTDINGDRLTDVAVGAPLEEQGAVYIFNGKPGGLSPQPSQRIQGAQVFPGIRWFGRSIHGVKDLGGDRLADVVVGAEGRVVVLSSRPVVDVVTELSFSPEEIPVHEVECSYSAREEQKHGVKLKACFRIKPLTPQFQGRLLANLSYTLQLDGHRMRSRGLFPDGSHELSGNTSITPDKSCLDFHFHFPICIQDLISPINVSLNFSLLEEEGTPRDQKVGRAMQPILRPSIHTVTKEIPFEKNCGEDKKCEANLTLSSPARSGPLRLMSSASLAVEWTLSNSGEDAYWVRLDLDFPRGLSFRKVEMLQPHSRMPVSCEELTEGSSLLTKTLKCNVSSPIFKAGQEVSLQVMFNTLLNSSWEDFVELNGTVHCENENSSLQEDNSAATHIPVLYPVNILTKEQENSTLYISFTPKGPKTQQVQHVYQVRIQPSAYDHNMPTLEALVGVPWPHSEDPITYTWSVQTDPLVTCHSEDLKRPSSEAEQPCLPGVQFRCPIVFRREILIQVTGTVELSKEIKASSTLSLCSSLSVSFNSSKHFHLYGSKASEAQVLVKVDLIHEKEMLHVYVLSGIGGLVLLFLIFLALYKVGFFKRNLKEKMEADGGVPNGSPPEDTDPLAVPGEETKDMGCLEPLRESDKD

O=C(c1ccc(N2C(=O)C3CC=C(Cl)CC3C2=O)cc1)N1CCCCC1 (stereo unspecified)
EC50 (Integrin alpha-L): 9.02 µM (active)

CSc1ccc(/C=C(/Sc2nnc(-c3ccccc3)o2)C(=O)O)cc1
AC50 (Importin subunit alpha-1): 116 µM (active)

CCc1c(C)nc(S)c(C#N)c1C
IC50 [1]: 6 µM (active)
IC50 [2]: > 100 µM (inactive)

C/C(=N\NC(=O)c1cccc(Br)c1)c1ccccn1
EC50 [3]: < 0.1 µM (active)
EC50 [4]: 0.714 µM (active)
IC50 (cells [5]): 0.57 µM (active)
IC50 (Vero [6]): > 25 µM (active)
IC50 [7]: 3.51 µM (active)
IC50 [8]: 1.82 µM (active)
AC50 (INS1): 0.315 µM (active)
CC50 [9]: 1.03 µM (active)
IC50 [10]: > 32 µM
EC50 (cells [11]): 0.966 µM (active)
CC50 [12]: 2.71 µM (active)
EC50 (Beta-galactosidase [13]): > 40 µM (inactive)
EC50 (Streptococcus): 4.74 µM (active)
IC50 (Beta-galactosidase [14]): > 80 µM (inactive)
CC50 (Vero [15]): 1.78 µM (active)
IC50 (Nonstructural protein 1): 1.67 µM (active)
EC50 [16]: 1.29 µM (active)
CC50 [17]: 0.584 µM (active)
EC50 (Beta-galactosidase [18]): > 31.5 µM (inactive)
EC50 [19]: 30 µM (active)
EC50 [20]: 0.895 µM (active)

CCCCc1ccc(NC(=O)Nc2cccnc2)cc1
IC50 [21]: 16.8 µM (active)
IC50 [22]: 5.08 µM (active)
IC50 [23]: 14.1 µM (active)
EC50 [24]: 13.7 µM (active)
IC50 (Caspase-3): 22.7 µM (active)

O=C(/C=C/Sc1ccccc1)c1ccccc1
EC50 [25]: 28.4 µM (active)
IC50 [26]: 3.91 µM (active)
IC50 (Perilipin-1/ABHD5): 3.91 µM (active)
CC50 (Vero [15]): 23.6 µM (active)
EC50 [27]: 27.7 µM (active)
EC50 [28]: 5.83 µM (active)
